From patent publication US8269043B2, “Bicyclic aryl sphingosine 1-phosphate analogs” (Biogen Idec MA Inc., priority 2008, dated 2012)

tested on: circulating lymphocytes; assay: Lymphopenia assay: circulating lymphocytes after oral gavage; type: in vivo; details: C57bl/6 male mice, oral gavage 0.5 and 5 mg/kg in 30% HPCD, blood 5 and 24 hours after administration
Experimental: Measurement of circulating lymphocytes: Compounds were dissolved in 30% HPCD. Mice (C57bl/6 male, 6-10 week-old) were administered 0.5 and 5 mg/kg of a compound via oral gavage. 30% HPCD was included as a negative control.
Blood was collected from the retro-orbital sinus 5 and 24 hours after drug administration under short isoflurane anesthesia. Whole blood samples were subjected to hematology analysis. Peripheral lymphocyte counts were determined using an automated analyzer (HEMAVET™ 3700). Three mice were used to assess the lymphocyte depletion activity of each compound screened.
Compounds of formula (I) induced full lymphopenia at times as short as 3 hours or less to as long as 48 hours or more; for example, 4 to 36 hours, or 5 to 24 hours. In some cases, a compound of formula induced full lymphopenia at 5 hours and partial lymphopenia at 24 hours. The dosage required to induce lymphopenia can be in the range of, e.g., 0.001 mg/kg to 100 mg/kg; or 0.01 mg/kg to 10 mg/kg. The dosage can be 10 mg/kg or less, such as 5 mg/kg or less, 1 mg/kg or less, or 0.1 mg/kg or less

For `NC(CO)(CO)c1ccc2c(C(F)(F)F)c(O[C@H]3C[C@H](COCc4ccccc4)C3)ccc2c1` [Example 73], the “Lymphopenia (ED50 mg/kg)” value was under 0.5 mg/kg.
For “(R)-2-amino-2-(6-((1R,2R,4S)-bicyclo[2.2.1]heptan-2-yloxy)naphthalen-2-yl)propan-1-ol [Example 105]”, the “Lymphopenia (ED50 mg/kg)” value was over 5 mg/kg.

With `CC(C)(C)[C@H]1CC[C@@H](Oc2ccc3cc([C@](C)(N)CO)ccc3c2C(F)(F)F)CC1` (relative stereo) [Example 128, (S)-2-amino-2-[6-(4-cis-tert-butyl-cyclohexyloxy)-5-trifluoromethyl-naphthalen-2-yl]-propan-1-ol] the “Lymphopenia (ED50 mg/kg)” value was 0.5 to 5 mg/kg.

same assay, conditions: Mus musculus, Lymphocyte, po, C57bl/6 male mice, oral gavage 0.5 and 5 mg/kg in 30% HPCD, blood 5 and 24 hours after administration

`Cc1c(O[C@H]2CC[C@H](C(C)(C)C)CC2)ccc2cc([C@@](C)(N)CO)ccc12` [Example 217, (R)-2-amino-2-(6-(trans-4-tert-butylcyclohexyloxy)-5-methylnaphthalen-2-yl)propan-1-ol] and `CC(C)(C)[C@H]1CC[C@H](Oc2ccc3cc([C@@](C)(N)CO)ccc3c2Br)CC1` [Example 237, (R)-2-amino-2-(5-bromo-6-(trans-4-tert-butylcyclohexyloxy)naphthalen-2-yl)propan-1-ol] cannot be ordered by ED50: under 0.5 mg/kg for the first, under 0.5 mg/kg for the second.

First: C[C@](N)(CO)c1ccc2cc(O[C@H]3CC[C@H](C(F)(F)F)CC3)ccc2c1 [Example 260, (R)-2-Amino-2-[6-(trans-4-trifluoromethyl-cyclohexyloxy)-naphthalen-2-yl]-propan-1-ol]
Second: CC(F)(F)[C@H]1CC[C@H](Oc2ccc3cc([C@@](C)(N)CO)ccc3c2)CC1 [Example 299, (R)-2-amino-2-(6-(trans-4-(1,1-difluoroethyl)cyclohexyloxy)naphthalen-2-yl)propan-1-ol]
The ED50 of the first is higher: 0.5 to 5 mg/kg for the first, under 0.5 mg/kg for the second.

First: CC(N)(CCC(=O)O)c1ccc2c(C(F)(F)F)c(O[C@H]3CC[C@H](C(C)(C)C)CC3)ccc2c1 (stereo partly drawn) [Example 211, 4-amino-4-(6-(trans-4-tert-butylcyclohexyloxy)-5-(trifluoromethyl)naphthalen-2-yl) pentanoic acid]
Second: CCC(F)(F)[C@H]1CC[C@H](Oc2ccc3cc([C@@](C)(N)CO)ccc3c2C(F)(F)F)CC1 [Example 337, (R)-2-amino-2-(6-(trans-4-(1,1-difluoropropyl)cyclohexyloxy)-5-(trifluoromethyl)naphthalen-2-yl)propan-1-ol]
The ED50 of the first is higher: 0.5 to 5 mg/kg for the first, under 0.5 mg/kg for the second.

`C[C@](N)(CO)c1ccc2cc(Oc3cccc(Cl)c3)ccc2c1` [Example 172, (R)-2-Amino-2-(6-(3-chlorophenoxy)naphthalen-2-yl)propan-1-ol] and `C[C@](N)(CO)c1ccc2cc(Oc3ccc(F)c(Cl)c3)ccc2c1` [Example 185, (R)-2-Amino-2-(6-(3-chloro-4-fluorophenoxy)naphthalen-2-yl)propan-1-ol] fall in the same range of ED50: 0.5 to 5 mg/kg for the first, 0.5 to 5 mg/kg for the second.

Compared with `NC(CO)(CO)c1ccc2cc(Oc3cccc(OCCc4ccccc4)c3)ccc2c1` [Example 197, 2-Amino-2-(6-(3-phenethoxyphenoxy)naphthalen-2-yl)propane-1,3-diol], `CC(C)CCOc1cccc(Oc2ccc3cc(C(N)(CO)CO)ccc3c2)c1` [Example 198, 2-Amino-2-(6-(3-(isopentyloxy)phenoxy)naphthalen-2-yl)propane-1,3-diol] is higher in ED50: under 0.5 mg/kg for the first, 0.5 to 5 mg/kg for the second.

Going from `C[C@](N)(CO)c1ccc2c(C(F)(F)F)c(O[C@H]3CC[C@@H](C4CCCCC4)CC3)ccc2c1` [Example 160, (R)-2-Amino-2-(6-(cis-4-cyclohexylcyclohexyloxy)-5-(trifluoromethyl)naphthalen-2-yl)propan-1-ol] to `CC(C)(C)[C@H]1CC[C@H](Oc2ccc3cc(C4(N)COC4)ccc3c2C(F)(F)F)CC1` [Example 153, 3-(6-(trans-4-tert-butylcyclohexyloxy)-5-(trifluoromethyl)naphthalen-2-yl)oxetan-3-amine], the ED50 falls from over 5 mg/kg to under 0.5 mg/kg.

Compared with `CCCC[C@H]1CC[C@@H](Oc2ccc3cc([C@@](C)(N)CO)ccc3c2)CC1` [Example 6, (R)-2-amino-2-(6-(cis-4-butylcyclohexyloxy)naphthalen-2-yl)propan-1-ol], `CCCC(F)(F)[C@H]1CC[C@@H](Oc2ccc3cc([C@@](C)(N)CO)ccc3c2)CC1` [Example 331, (R)-2-amino-2-(6-(cis-4-(1,1-difluorobutyl)cyclohexyloxy)naphthalen-2-yl)propan-1-ol] is higher in ED50: 0.75 mg/kg for the first, over 5 mg/kg for the second.

`CC(C)Cc1ccc(Oc2ccc3cc([C@@](C)(N)CO)ccc3c2)cc1` [Example 178, (R)-2-Amino-2-(6-(4-isobutylphenoxy)naphthalen-2-yl)propan-1-ol] and `CC(C)Oc1ccc(Oc2ccc3cc([C@@](C)(N)CO)ccc3c2)cc1` [Example 189, (R)-2-Amino-2-[6-(4-isopropoxy-phenoxy)-naphthalen-2-yl]-propan-1-ol] cannot be ordered by ED50: under 0.5 mg/kg for the first, under 0.5 mg/kg for the second.

First: CCCCCOc1ccc(Oc2ccc3cc(C(N)(CO)CO)ccc3c2)cc1 [Example 251, 2-amino-2-(6-(4-(pentyloxy)phenoxy)naphthalen-2-yl)propane-1,3-diol]
Second: CC(C)(C)c1ccc(Oc2ccc3cc([C@@](C)(N)CO)ccc3c2)cc1 [Example 179, (R)-2-Amino-2-(6-(4-tert-butylphenoxy)naphthalen-2-yl)propan-1-ol]
The ED50 of the first is lower: under 0.5 mg/kg for the first, 0.5 to 5 mg/kg for the second.

Compared with `C[C@](N)(CO)c1ccc2cc(O[C@H]3CC[C@@H](c4ccccc4)CC3)ccc2c1` [Example 30, (R)-2-amino-2-(6-(cis-4-phenylcyclohexyloxy)naphthalen-2-yl)propan-1-ol], `CCC(F)(F)[C@H]1CC[C@@H](Oc2ccc3cc([C@@](C)(N)CO)ccc3c2)CC1` [Example 325, (R)-2-amino-2-(6-(cis-4-(1,1-difluoropropyl)cyclohexyloxy)naphthalen-2-yl)propan-1-ol] is higher in ED50: 0.5 to 5 mg/kg for the first, over 5 mg/kg for the second.

Compared with `C=Cc1c(O[C@H]2CC[C@H](C(C)(C)C)CC2)ccc2cc([C@@](C)(N)CO)ccc12` [Example 219, (R)-2-amino-2-(6-(trans-4-tert-butylcyclohexyloxy)-5-vinylnaphthalen-2-yl)propan-1-ol], `CC(C)(C)[C@H]1CC[C@H](Oc2ccc3cc([C@@](C)(N)CO)ccc3c2-c2cccc(Cl)c2)CC1` [Example 231, (R)-2-amino-2-(6-(trans-4-tert-butylcyclohexyloxy)-5-(3-chlorophenyl)naphthalen-2-yl)propan-1-ol] is higher in ED50: under 0.5 mg/kg for the first, over 5 mg/kg for the second.

First: CC1(C)CCC(Oc2ccc3cc([C@@](C)(N)CO)ccc3c2)CC1 [Example 47, (R)-2-amino-2-(6-(4,4-dimethylcyclohexyloxy)naphthalen-2-yl)propan-1-ol]
Second: CCCC(F)(F)[C@H]1CC[C@H](Oc2ccc3cc([C@@](C)(N)CO)ccc3c2)CC1 [Example 311, (R)-2-amino-2-(6-(trans-4-(1,1-difluorobutyl)cyclohexyloxy)naphthalen-2-yl)propan-1-ol]
The ED50 of the first is higher: over 5 mg/kg for the first, under 0.5 mg/kg for the second.

`CC(C)(C)[C@H]1CC[C@H](Oc2ccc3cc([C@@](C)(N)CO)ccc3c2-c2ccc(OC(F)(F)F)cc2)CC1` [Example 221, (R)-2-amino-2-(6-(trans-4-tert-butylcyclohexyloxy)-5-(4-(trifluoromethoxy)phenyl)naphthalen-2-yl)propan-1-ol] and `C[C@](N)(CO)c1ccc2cc(Oc3ccc(C(F)(F)F)cc3)ccc2c1` [Example 181, (R)-2-Amino-2-(6-(4-(trifluoromethyl)phenoxy)naphthalen-2-yl)propan-1-ol] cannot be ordered by ED50: over 5 mg/kg for the first, over 5 mg/kg for the second.

`C[C@](N)(CO)c1ccc2cc(Oc3ccc(F)c(F)c3)ccc2c1` [Example 183, (R)-2-Amino-2-(6-(3,4-difluorophenoxy)naphthalen-2-yl)propan-1-ol] was tested, and the ED50 was 0.5 to 5 mg/kg.
